From article PMC12321279, “Novel 4,5‐Dihydrothiazole‐Phenylpiperazine Derivatives: Synthesis, Docking Studies and Pharmacological Evaluation as Serotonergic Agents” (Chemmedchem, 2025)

System: mice
Test: Novel object recognition (NOR) test
Type: in vivo
Details: doses of 30 and 15 mg kg^−1 i.p. 60 min prior to first trial
Method: The tests were performed on male white mice of the Albino Swiss strain, whose weight was between 24 and 30 g in Experimental Medicine Center, Medical University of Lublin, Poland. The animals were housed (four/five per cage). Before conducting the experimental tests, the animals were subjected to an adaptation that lasted seven days. This consisted of keeping them in a room with relatively constant conditions: a temperature of 22 ± 1 °C, a humidity of 55 ± 5% and lighting that mimicked the natural day and night rhythm (12 h/12 h). Constant access to food and water was provided. Standard feed—LSM Motycz pelleted feed—and tap water were used. Mice were randomly allocated to study groups. Each group was represented by 8–10 animals, depending on the research schedule. […]
The setup for the NOR test consisted of a square, open‐ended Plexiglas box (46 cm long × 35 cm high × 33 cm wide), with a 10‐lux light source suspended 50 cm above it. […] The duration of exploration of each object at T1, T2, and T3 was manually recorded using a stopwatch. The discrimination between F and N during T2 or T3 was assessed by comparing the time spent exploring each of them. Memory performance was assessed using the DI, calculated as (N − F)/ (N + F), representing the difference in exploration time between N and F, normalized by the total exploration time for both objects. […]

`O=C1C2C3C=CC(C3)C2C(=O)N1OCCCN1CCN(c2ccccc2C2=NCCS2)CC1` (stereo not shown) [FG‐7, 2‐(3‐(4‐(2‐(4,5‐dihydrothiazol‐2‐yl) phenyl) piperazin‐1‐yl) propoxy)‐3a,4,7,7a‐tetrahydro‐1 H‐4,7‐methanoisoindole‐1,3(2 H)‐dione] was tested, and the “NOR test, memory consolidation expressed by the discrimination index (DI)” value was “showed activity in the novel object recognition (NOR) test”.
